Patent US8217048B2, “Inhibitors of serine proteases, particularly HCV NS3-NS4A protease” (Vertex Pharmaceuticals Incorporated, priority 2003, dated 2012)

Experiments:
[1] = system: Cells containing hepatitis C virus (HCV) replicon; assay: HCV Replicon Cell Assay (Example 4); type: cell-based; settings: 48 h, tested according to Example 4 (cell), 50% inhibition of HCV RNA level, 48-hour incubation
Protocol: HCV Replicon Cell Assay Protocol
Cells containing hepatitis C virus (HCV) replicon were maintained in DMEM containing 10% fetal bovine serum (FBS), 0.25 mg per ml of G418, with appropriate supplements (media A).
On day 1, replicon cell monolayer was treated with a trypsin:EDTA mixture, removed, and then media A was diluted into a final concentration of 100,000 cells per ml wit. 10,000 cells in 100 ul were plated into each well of a 96-well tissue culture plate, and cultured overnight in a tissue culture incubator at 37° C.
On day 2, compounds (in 100% DMSO) were serially diluted into DMEM containing 2% FBS, 0.5% DMSO, with appropriate supplements (media B). The final concentration of DMSO was maintained at 0.5% throughout the dilution series.
Media on the replicon cell monolayer was removed, and then media B containing various concentrations of compounds was added. Media B without any compound was added to other wells as no compound controls.
Cells were incubated with compound or 0.5% DMSO in media B for 48 hours in a tissue culture incubator at 37° C. At the end of the 48-hour incubation, the media was removed, and the replicon cell monolayer was washed once with PBS and stored at −80° C. prior to RNA extraction.
Culture plates with treated replicon cell monolayers were thawed, and a fixed amount of another RNA virus, such as Bovine Viral Diarrhea Virus (BVDV) was added to cells in each well, RNA extraction reagents (such as reagents from RNeasy kits) were added to the cells immediately to avoid degradation of RNA. Total RNA was extracted according the instruction of manufacturer with modification to improve extraction efficiency and consistency. Finally, total cellular RNA, including HCV replicon RNA, was eluted and stored at −80° C. until further processing.
A Taqman real-time RT-PCR quantification assay was set up with two sets of specific primers and probe. One was for HCV and the other was for BVDV. Total RNA extractants from treated HCV replicon cells was added to the PCR reactions for quantification of both HCV and BVDV RNA in the same PCR well. Experimental failure was flagged and rejected based on the level of BVDV RNA in each well. The level of HCV RNA in each well was calculated according to a standard curve run in the same PCR plate. The percentage of inhibition or decrease of HCV RNA level due to compound treatment was calculated using the DMSO or no compound control as 0% of inhibition. The IC50 (concentration at which 50% inhibition of HCV RNA level is observed) was calculated from the titration curve of any given compound.

HCV NS3-NS4A protease = molecular target: T1, HCV NS3-NS4A protease (Hepatitis C virus genotype 1a, UniProt P27958); assay: HCV Ki Assay (enzyme, Example 5); type: biochemical; settings: Ki values, tested according to Example 5 (enzyme); 5AB substrate, tNS3 with KK4A
T1 construct: The buffer, KK4A, DTT, and tNS3 were combined
T1 sequence (P27958 1658-1711): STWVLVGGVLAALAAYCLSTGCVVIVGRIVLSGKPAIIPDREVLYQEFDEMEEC
T1 sequence (P27958 1027-1208): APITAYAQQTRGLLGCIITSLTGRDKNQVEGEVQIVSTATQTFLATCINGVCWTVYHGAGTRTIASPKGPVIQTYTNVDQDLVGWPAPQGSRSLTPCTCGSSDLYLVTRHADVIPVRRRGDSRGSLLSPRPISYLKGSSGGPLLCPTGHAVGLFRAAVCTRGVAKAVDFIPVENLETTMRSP
Protocol: HPLC Microbore Method for Separation of 5AB Substrate and Products
NH2-Glu-Asp-Val-Val-(alpha)Abu-Cys-Ser-Met-Ser-Tyr-COOH
A stock solution of 20 mM 5AB (or concentration of your choice) was made in DMSO w/0.2M DTT. This was stored in aliquots at −20 C.
Buffer: 50 mM HEPES, pH 7.8; 20% glycerol; 100 mM NaCl
Total assay volume was 100 μL
The buffer, KK4A, DTT, and tNS3 were combined; distributed 78 μL each into wells of 96 well plate. This was incubated at 30 C for ˜5-10 min.
2.5 μL of appropriate concentration of test compound was dissolved in DMSO (DMSO only for control) and added to each well. This was incubated at room temperature for 15 min.
Initiated reaction by addition of 20 μL of 250 μM 5AB substrate (25 μM concentration is equivalent or slightly lower than the Km for 5AB).
Incubated for 20 min at 30 C.
Terminated reaction by addition of 25 μL of 10% TFA
Transferred 120 μL aliquots to HPLC vials
Separated SMSY product from substrate and KK4A by the following method:
Microbore Separation Method:
Instrumentation: Agilent 1100
Column thermostated chamber G1316A
Diode array detector G1315A
Solvent A=HPLC grade water+0.1% TFA
Solvent B=HPLC grade acetonitrile+0.1% TFA
Stop time: 17 min Post-run time: 10 min.

SMILES | IC50 [1] [nM] | Ki (HCV NS3-NS4A protease) [nM]
CCC[C@H](NC(=O)[C@@H]1C[C@@H](Oc2ccc([N+](=O)[O-])cn2)CN1C(=O)[C@@H](NC(=O)[C@@H](NC(=O)c1cnccn1)C1CCCCC1)C(C)(C)C)C(=O)C(=O)NC1CC1 [Compound 26] | < 500 | 100 to 300
CCC[C@H](NC(=O)[C@@H]1C[C@@H](Oc2ccc(NC(C)=O)cc2)CN1C(=O)[C@@H](NC(=O)[C@@H](NC(=O)c1cnccn1)C1CCCCC1)C(C)(C)C)C(=O)C(=O)NC1CC1 [Compound 51] | > 1000 | < 100
CCC[C@H](NC(=O)[C@@H]1C[C@@H](Oc2ccc(Cl)c(Cl)c2)CN1C(=O)[C@@H](NC(=O)[C@@H](NC(=O)c1cnccn1)C1CCCCC1)C(C)(C)C)C(=O)C(=O)NC1CC1 [Compound 53] | < 500 | < 100
CCC[C@H](NC(=O)[C@@H]1C[C@@H](Oc2cccc(C(F)(F)F)c2)CN1C(=O)[C@@H](NC(=O)[C@@H](NC(=O)c1cnccn1)C1CCCCC1)C(C)(C)C)C(=O)C(=O)NC1CC1 [Compound 22] | < 500 | 100 to 300
CCC[C@H](NC(=O)C1C[C@@H](Oc2c(F)cccc2F)CN1C(=O)[C@@H](NC(=O)[C@@H](NC(=O)c1cnccn1)C1CCCCC1)C(C)(C)C)C(=O)C(=O)NC1CC1 (some centres unmarked) [Compound 10] | 500 to 1000 | 100 to 300
CCC[C@H](NC(=O)[C@@H]1C[C@@H](Oc2cccc(OC(F)(F)F)c2)CN1C(=O)[C@@H](NC(=O)[C@@H](NC(=O)c1cnccn1)C1CCCCC1)C(C)(C)C)C(=O)C(=O)NC1CC1 [Compound 16] | 500 to 1000 | 100 to 300
CCC[C@H](NC(=O)[C@@H]1C[C@@H](Oc2ccc(S(=O)(=O)NC)cc2)CN1C(=O)[C@@H](NC(=O)[C@@H](NC(=O)c1cnccn1)C1CCCCC1)C(C)(C)C)C(=O)C(=O)NC1CC1 [Compound 48] | < 500 | 100 to 300
CCC[C@H](NC(=O)[C@@H]1C[C@@H](Oc2ccc(OC)c3ccccc23)CN1C(=O)[C@@H](NC(=O)[C@@H](NC(=O)c1cnccn1)C1CCCCC1)C(C)(C)C)C(=O)C(=O)NC1CC1 [Compound 38] | < 500 | < 100
CCC[C@H](NC(=O)[C@@H]1C[C@@H](Oc2ccc([N+](=O)[O-])cc2)CN1C(=O)[C@@H](NC(=O)[C@@H](NC(=O)c1cnccn1)C1CCCCC1)C(C)(C)C)C(=O)C(=O)NC1CC1 [Compound 44] | < 500 | < 100
CCC[C@H](NC(=O)[C@@H]1C[C@@H](Oc2cccc(Cl)c2)CN1C(=O)[C@@H](NC(=O)[C@@H](NC(=O)c1cnccn1)C1CCCCC1)C(C)(C)C)C(=O)C(=O)NC1CC1 [Compound 66] | < 500 | 100 to 300
CCC[C@H](NC(=O)C1C[C@@H](Oc2ccccc2C(F)(F)F)CN1C(=O)[C@@H](NC(=O)[C@@H](NC(=O)c1cnccn1)C1CCCCC1)C(C)(C)C)C(=O)C(=O)NC1CC1 (some centres unmarked) [Compound 6] | > 1000 | > 300
CCC[C@H](NC(=O)[C@@H]1C[C@@H](Oc2nc(C(F)(F)F)nc3ccccc23)CN1C(=O)[C@@H](NC(=O)[C@@H](NC(=O)c1cnccn1)C1CCCCC1)C(C)(C)C)C(=O)C(=O)NC1CC1 [Compound 60] | > 1000 | 100 to 300
CCC[C@H](NC(=O)[C@@H]1C[C@@H](Oc2ccc(F)cc2)CN1C(=O)[C@@H](NC(=O)[C@@H](NC(=O)c1cnccn1)C1CCCCC1)C(C)(C)C)C(=O)C(=O)NC1CC1 [Compound 43] | < 500 | < 100
CCC[C@H](NC(=O)[C@@H]1C[C@@H](Oc2ccc(C(=O)N3CCN(C(=O)OCc4ccccc4)CC3)cc2)CN1C(=O)[C@@H](NC(=O)[C@@H](NC(=O)c1cnccn1)C1CCCCC1)C(C)(C)C)C(=O)C(=O)NC1CC1 [Compound 70] | 500 to 1000 | 100 to 300
CCC[C@H](NC(=O)[C@@H]1C[C@@H](Oc2cccc(S(=O)(=O)NC)c2)CN1C(=O)[C@@H](NC(=O)[C@@H](NC(=O)c1cnccn1)C1CCCCC1)C(C)(C)C)C(=O)C(=O)NC1CC1 [Compound 47] | < 500 | > 300
CCC[C@H](NC(=O)[C@@H]1C[C@@H](Oc2cc(F)cc(F)c2)CN1C(=O)[C@@H](NC(=O)[C@@H](NC(=O)c1cnccn1)C1CCCCC1)C(C)(C)C)C(=O)C(=O)NC1CC1 [Compound 55] | < 500 | 100 to 300
CCC[C@H](NC(=O)[C@@H]1C[C@@H](Oc2ccc(Cl)c3ccccc23)CN1C(=O)[C@@H](NC(=O)[C@@H](NC(=O)c1cnccn1)C1CCCCC1)C(C)(C)C)C(=O)C(=O)NC1CC1 [Compound 40] | < 500 | < 100
CCC[C@H](NC(=O)[C@@H]1C[C@@H](Oc2ccnc3ccccc23)CN1C(=O)[C@@H](NC(=O)[C@@H](NC(=O)c1cnccn1)C1CCCCC1)C(C)(C)C)C(=O)C(=O)NC1CC1 [Compound 39] | < 500 | < 100
CCC[C@H](NC(=O)[C@@H]1C[C@@H](Oc2cccc(C(=O)OC)c2)CN1C(=O)[C@@H](NC(=O)[C@@H](NC(=O)c1cnccn1)C1CCCCC1)C(C)(C)C)C(=O)C(=O)NC1CC1 [Compound 45] | < 500 | < 100
CCC[C@H](NC(=O)C1C[C@@H](Oc2ccccc2F)CN1C(=O)[C@@H](NC(=O)[C@@H](NC(=O)c1cnccn1)C1CCCCC1)C(C)(C)C)C(=O)C(=O)NC1CC1 (some centres unmarked) [Compound 4] | 500 to 1000 | 100 to 300
CCC[C@H](NC(=O)C1C[C@@H](Oc2cc(Cl)ccc2Cl)CN1C(=O)[C@@H](NC(=O)[C@@H](NC(=O)c1cnccn1)C1CCCCC1)C(C)(C)C)C(=O)C(=O)NC1CC1 (some centres unmarked) [Compound 3] | 500 to 1000 | 100 to 300
CCC[C@H](NC(=O)[C@@H]1C[C@@H](Oc2ccccn2)CN1C(=O)[C@@H](NC(=O)[C@@H](NC(=O)c1cnccn1)C1CCCCC1)C(C)(C)C)C(=O)C(=O)NC1CC1 [Compound 58] | < 500 | < 100
CCC[C@H](NC(=O)[C@@H]1C[C@@H](Oc2ccc(OC(F)(F)F)cc2)CN1C(=O)[C@@H](NC(=O)[C@@H](NC(=O)c1cnccn1)C1CCCCC1)C(C)(C)C)C(=O)C(=O)NC1CC1 [Compound 14] | < 500 | 100 to 300
CCC[C@H](NC(=O)[C@@H]1C[C@@H](Oc2ccc(C(F)(F)F)cc2)CN1C(=O)[C@@H](NC(=O)[C@@H](NC(=O)c1cnccn1)C1CCCCC1)C(C)(C)C)C(=O)C(=O)NC1CC1 [Compound 13] | < 500 | 100 to 300
CCC[C@H](NC(=O)[C@@H]1C[C@@H](Oc2cccc(NC(C)=O)c2)CN1C(=O)[C@@H](NC(=O)[C@@H](NC(=O)c1cnccn1)C1CCCCC1)C(C)(C)C)C(=O)C(=O)NC1CC1 [Compound 49] | > 1000 | < 100
CCC[C@H](NC(=O)C1C[C@@H](Oc2cccc(F)c2F)CN1C(=O)[C@@H](NC(=O)[C@@H](NC(=O)c1cnccn1)C1CCCCC1)C(C)(C)C)C(=O)C(=O)NC1CC1 (some centres unmarked) [Compound 7] | < 500 | 100 to 300
CCC[C@H](NC(=O)[C@@H]1C[C@@H](Oc2cccc(C(=O)NC)c2)CN1C(=O)[C@@H](NC(=O)[C@@H](NC(=O)c1cnccn1)C1CCCCC1)C(C)(C)C)C(=O)C(=O)NC1CC1 [Compound 46] | < 500 | < 100
CCC[C@H](NC(=O)C1C[C@@H](Oc2ccc(Cl)cc2Cl)CN1C(=O)[C@@H](NC(=O)[C@@H](NC(=O)c1cnccn1)C1CCCCC1)C(C)(C)C)C(=O)C(=O)NC1CC1 (some centres unmarked) [Compound 2] | 500 to 1000 | 100 to 300
